Laboratory results from US20170247449A1, “THERAPEUTIC METHOD AND MEDICAMENT FOR CANCER PATIENTS BY FOLR1-TARGETING DRUG AND AN ANTAGONIST FOR FOLIC ACID METABOLISM” (KYOWA HAKKO KIRIN CO., LTD, priority 2014, published 2017).

What was measured:
[1] = tested on: FOLR1 expression in SKOV-3; test: Expression level of FOLR1 in ovarian cancer cell line after incubation with pemetrexed; assay type: cell-based, human
Protocol: (§1) After culturing each cell line under the above conditions, cells were detached using TrypLE Express, washed with phosphate buffer saline (PBS) and then suspended in FCM buffer (PBS containing 1 mmol/L EDTA, 0.05% sodium azide and 5% inactivated FCS).
(§2) Next, the cells were seeded in a 96-well plate at 1×10^5 cells per well and centrifuged at 1700 rpm for one minute. After removing the supernatant, an anti-human FOLR1 humanized antibody (HuRA15-7CTAcc antibody) (WO2014/087863) which was prepared at 10 μg/mL with FCM buffer was added to the cells and reacted for 30 minutes at 4° C.
(§3) After washing the cells, Anti-Human IgG-FITC (Jackson) which was diluted 100 times with the FCM buffer was added and reacted for 30 minutes at 4° C. After washing the cells again, the cells were suspended in the FCM buffer. The fluorescence intensities were analyzed with a flow cytometer (Beckman Coulter, Inc., FC500MPL) to determine the mean fluorescence intensity (MFI) of each cell.
(§4) First, SKOV-3 [American Type Culture Collection (hereinafter referred to as ATCC) No. HTB-77], MCAS (JCRB cell No. JCRB0240), NIH:OVCAR-3 (ATCC No. HTB-161) and IGR-OV1 (National Cancer Institute), which are ovarian cancer-derived cell lines, were cultured in the culture medium.

[2] = tested on: FOLR1 expression in OVCAR-3; test: as above; assay type: cell-based, human; settings: OVCAR-3 [FIG. 2(C)], low folic acid medium, regardless of the final pemetrexed concentration
Protocol: as §1, §2, §3, §4

FOLR1 expression in MCAS = test: as above; assay type: cell-based, human
Protocol: as §1, §2, §3, §4

[3] = tested on: FOLR1 expression in IGR-OV1; test: as above; assay type: cell-based, human
Protocol: as §1, §2, §3, §4

[4] = tested on: FOLR1 expression in NCI-H522; test: Expression level of FOLR1 in NSCLC cell line after incubation with pemetrexed (flow cytometry, MFI); assay type: cell-based, human; settings: NCI-H522, low folic acid medium, 0, 10 or 1000 nmol/L pemetrexed, 72 hours
Protocol: (§5) NSCLC cell lines such as NCI-H522 [American Type Culture Collection (hereinafter referred to as ATCC) No. CRL-5810], NCI-H838 (ATCC No. CRL-5844), NCI-H1437 (ATCC No. CRL-5872) and NCI-H2228 (ATCC No. CRL-5935) were cultured in a culture medium [RPMI1640 (GIBCO), 10% inactivated bovine serum (FCS, GIBCO)].
(§6) Next, cells were detached from culture flasks using TrypLE Express (GIBCO) and suspended in a folic acid-free medium [RPMI 1640 folate-free (GIBCO), 10% inactivated dialyzed FCS (dFCS, GIBCO)]. The cells were seeded to 25-cm^2 tissue culture (TC) flasks at 2.5×10^5 cells/4 mL.
as §1, §2, §3

[5] = tested on: FOLR1 expression in NCI-H1437; test: as above; assay type: cell-based, human; settings: NCI-H1437, low folic acid medium, 72 hours
Protocol: as §5, §6, §1, §2, §3

[6] = tested on: FOLR1 expression in NCI-H2228; test: as above; assay type: cell-based, human; settings: NCI-H2228, low folic acid medium, 72 hours
Protocol: as §5, §6, §1, §2, §3

[7] = tested on: FOLR1 expression in NCI-H838; test: as above; assay type: cell-based, human; settings: NCI-H838, low folic acid medium, 0, 10 or 1000 nmol/L pemetrexed, 72 hours
Protocol: as §5, §6, §1, §2, §3

in vitro = settings: human, MCAS ovarian cancer cells
[8] = tested on: FOLR1 expression in HEC-1-A; test: Expression level of FOLR1 in endometrial cancer cell line after incubation with pemetrexed; assay type: cell-based, human
Protocol: (§7) Endometrial cancer-derived cell line MES-SA (ATCC No. CRL-1976) and HEC-1-A (ATCC No. HTB-112) were cultured in McCoy's 5A medium (ATCC) containing 10% FCS (GIBCO), and HEC-1-B (ATCC No. HTB-113) was cultured in Eagle's Minimum Essential Medium (ATCC) containing 10% FCS (GIBCO).
(§8) Also, a flow cytometer manufactured by Becton, Dickinson and Company (FACSVerse) was used instead of the flow cytometer manufactured by Beckman Coulter, Inc. (FC500MPL).

[9] = tested on: FOLR1 expression in HEC-1-B; test: as above; assay type: cell-based, human
Protocol: as §7, §8

[10] = tested on: FOLR1 expression in MES-SA; test: as above; assay type: cell-based, human
Protocol: as §7, §8

ovarian cancer = settings: cited from earlier work
[11] = tested on: ovarian cancer cell line MCAS; test: ADCC activity against pemetrexed-treated MCAS using healthy donor PBMCs (LDH release); assay type: cell-based, human; settings: for ADCC activity against MCAS cultured with pemetrexed versus cultured without pemetrexed: 20 nmol/L pemetrexed, P<0.05
Protocol: (§9) These cells were adjusted at 1×10^4 cells/50 μL using ADCC measurement medium [phenol red-free RPMI1640 (GIBCO), 5% inactivated dFCS (GIBCO)] as target cell solutions.
(§10) Next, heparin-treated peripheral blood of a healthy donor was loaded into a LeucoSep lymphocyte separation tube (Greiner) filled with Lymphoprep (Cosmo Bio), and centrifuged at 1000×g for 20 minutes at room temperature.
(§11) After the centrifugation, the plasma fraction was removed, and the peripheral blood mononuclear cell (PBMC) layer was collected. Then, the cells were washed with the ADCC measurement medium. The PBMCs were adjusted at 2.5×10^5 cells/50 μL using the ADCC measurement medium as an effector cell solution.
HuRA15-7CTAcc antibody and MORAb-003 (farletuzumab) were used as anti-human FOLR1 humanized antibodies. The antibody solutions were prepared at 0.1, 1, 10, 100 and 1000 ng/mL with the ADCC measurement medium, so that the final concentrations of the assay became 0.033, 0.33, 3.3, 33 and 333 ng/mL.
(§12) Fifty μL of each the target cell solution, the effector cell solution, and the antibody solution, which were prepared as described above, were mixed in a U-bottom 96-well plate, so that the total volume of each well was 150 μL. After mixing the wells, the cells were precipitated by centrifugation at 50×g for five minutes at room temperature. These cells were reacted for four hours at 37° C.
(§13) After mixing the wells, the cells were precipitated again by centrifugation. Then, 50 μL of the supernatant of each well was dispensed to a new 96-well plate. The lactate dehydrogenase (LDH) activities of the dispensed supernatant solutions were measured using CytoTox 96 Non-Radioactive Cytotoxicity Assay (Promega) according to the instruction.
(§14) The ADCC activity was calculated by the following equation after subtracting the measured LDH activity value of the well containing the ADCC measurement medium only from the measured LDH activity value of all wells. These values were determined as the corrected LDH activity value of each well.
ADCC Activity (%)=100×(Exp−ET spo)/(T total−D−T spo) [Chem. 1]
Here, Exp is the corrected LDH activity value of a sample; ET spo is the corrected LDH activity value of the well in which the effector cell solution and the target cell solution were mixed; T total is the corrected LDH activity value of the well in which the target cells and the Lysis Solution attached to CytoTox 96 Non-Radioactive Cytotoxicity Assay were mixed; D is the corrected LDH activity value of the Lysis Solution; and T spo is the corrected LDH activity value of the well containing the target cells only.

[12] = tested on: NSCLC cell line NCI-H2228; test: ADCC activity against pemetrexed-treated NCI-H2228 using healthy donor PBMCs (LDH release); assay type: cell-based, human; settings: for ADCC activity against NCI-H2228 cultured with pemetrexed versus cultured without pemetrexed: 1000 nmol/L pemetrexed, P<0.05
Protocol: as §9, §10, §11
HuRA15-7CTAcc antibody and MORAb-003 (farletuzumab) were used as anti-human FOLR1 humanized antibodies.
as §12, §13, §14
ADCC Activity (%)=100×(Exp−ET spo)/(T total−D−T spo) [Chem. 1] […]
The ADCC activity against the NSCLC cell line NCI-H2228 was evaluated by a similar method to that in Example 3 except for using pemetrexed at the final concentration of 0, 20 or 1000 nmol/L in the culture.

NSCLC = settings: patients with NSCLC; clinical trials terminated; cited from earlier work
[13] = 1000 nmol/L pemetrexed in low folic acid medium
[14] = low folic acid medium, 0, 10 or 1000 nmol/L pemetrexed, 72 hours

For `Nc1nc2[nH]cc(CCc3ccc(C(=O)N[C@@H](CCC(=O)O)C(=O)O)cc3)c2c(=O)[nH]1` [pemetrexed], the “expression level of FOLR1 relative to incubation in the culture medium (NC)” value ([1]; SKOV-3, 1000 nmol/L pemetrexed in low folic acid medium) was “about 2.5 times”, the “expression level of FOLR1, dependence on pemetrexed concentration” value (from here on “expression level of FOLR1, dependence”) ([1]; SKOV-3, low folic acid medium, 0, 10 or 1000 nmol/L pemetrexed) was “higher concentration of pemetrexed induced higher expression level of FOLR1” and the “expression level of FOLR1 compared to incubation in the culture medium” value [2] was “did not increase”. For the same molecule, the “expression level of FOLR1 relative to incubation in the culture medium (NC)” value (FOLR1 expression in MCAS; [13]) was “about 7 times”, the “expression level of FOLR1, dependence” value (FOLR1 expression in MCAS; low folic acid medium, 0, 10 or 1000 nmol/L pemetrexed) was “higher concentration of pemetrexed induced higher expression level of FOLR1” and the “expression level of FOLR1 relative to incubation in the culture medium (NC)” value ([3]; IGR-OV1, 1000 nmol/L pemetrexed in low folic acid medium) was “about 2.5 times”. The “expression level of FOLR1, dependence” value ([3]; IGR-OV1, low folic acid medium, 0, 10 or 1000 nmol/L pemetrexed) was “higher concentration of pemetrexed induced higher expression level of FOLR1”, the “expression level of FOLR1, dependence” value [4] was “higher concentration of pemetrexed induced higher expression level of FOLR1” and the “expression level of FOLR1 relative to incubation with 0 nmol/L pemetrexed” value ([5]; 10 nmol/L pemetrexed) was “about 1.5 times”. The “expression level of FOLR1 relative to incubation with 0 nmol/L pemetrexed” value ([5]; 1000 nmol/L pemetrexed) was about 2 times, the “expression level of FOLR1 relative to incubation with 0 nmol/L pemetrexed” value ([6]; 10 nmol/L pemetrexed) was “about 1.5 times” and the “expression level of FOLR1 relative to incubation with 0 nmol/L pemetrexed” value ([6]; 1000 nmol/L pemetrexed) was about 2 times. The “expression level of FOLR1, dependence” value [7] was “higher concentration of pemetrexed induced higher expression level of FOLR1”, the viability at 72 h, 20 nmol/L (in vitro) was 96.6% and the “expression level of FOLR1 relative to culture in the culture medium (NC)” value [8, 13] was “approximately 3 times”. For the same molecule, the “expression level of FOLR1, dependence” value [8, 14] was “higher pemetrexed treatment induced higher expression level of FOLR1”, the “expression level of FOLR1 relative to culture in the culture medium (NC)” value [9, 13] was “approximately 2 times” and the “expression level of FOLR1, dependence” value [9, 14] was “higher pemetrexed treatment induced higher expression level of FOLR1”. For the same molecule, the “expression level of FOLR1 relative to culture in the culture medium (NC)” value [10, 13] was “approximately 3.5 times” and the “expression level of FOLR1, dependence” value [10, 14] was “higher pemetrexed treatment induced higher expression level of FOLR1”.

In the case of “MORAb-003: existing anti-human FOLR1 humanized IgG1 antibody, sequences described in WO2005/080431”, the clinical benefit (ovarian cancer; patients with platinum-resistant ovarian cancer, clinical trials terminated) is listed as “did not show benefit”, the clinical response (ovarian cancer; patients with platinum-sensitive recurrent ovarian cancer) is listed as “responses in some patients” and the “ADCC activity against MCAS cultured with pemetrexed versus cultured without pemetrexed” value ([11]; healthy donor 2-derived PBMCs, antibody 0.33, 3.3, 33 and 333 ng/mL) is listed as “significantly higher”. For the same molecule, the “ADCC activity against NCI-H2228 cultured with pemetrexed versus cultured without pemetrexed” value ([12]; antibody 0.0033, 3.3, 33 and 333 ng/mL) was “significantly higher” and the clinical benefit (NSCLC) was “did not show benefit”.

B1: HuRA15-7CTAcc: anti-human FOLR1 humanized antibody, VH SEQ ID NO: 8, VL SEQ ID NO: 9, expressed in FUT8 knocked out CHO/DG44 (WO2014/087863) (antibody, V domains shown)
VH: EVQLVESGGGLVQPGGSLRLSCAASGFTFTDFYMNWVRQPPGKAPEWLGFIRNKANGYTTEFNPSVKGRFTISRDNSKNSLYLQMNSLKTEDTATYYCARTLYGYAYYYVMDAWGQGTLVTVSS
VL: DIQMTQSPSSLSASLGDRVTITCRTSEDIFRNLAWYQQKPGKAPKLLIYDTNRLADGVPSRFSGSGSGTDYTLTISSLQPEDFATYFCQQYDNYPLTFGQGTKLEIK
modifications: afucosylated; nonS_HuRA15-7CTVH_AA; nonS_HuRA15-7LV3_AA
With B1 the “ADCC activity against MCAS cultured with pemetrexed versus cultured without pemetrexed” value ([11]; healthy donor 1-derived PBMCs, all the antibody concentrations) was “significantly higher”, the “ADCC activity against MCAS cultured with pemetrexed versus cultured without pemetrexed” value ([11]; healthy donor 2-derived PBMCs, antibody 0.033 and 0.33 ng/mL) was “significantly higher” and the “ADCC activity, dependence on antibody concentration” value ([11]; MCAS, PBMCs of two healthy donors, antibody 0.033-333 ng/mL) was “cytotoxicity was observed in association with the antibody concentration”. The “ADCC activity against NCI-H2228 cultured with pemetrexed versus cultured without pemetrexed” value ([12]; all the antibody concentrations) was “significantly higher” and the “ADCC activity, dependence on antibody concentration” value ([12]; NCI-H2228, PBMCs of a healthy donor) was “cytotoxicity was observed in association with the antibody concentration”.
